Assay results: paper PMC11788587, “Validating Low‐Dose Iohexol as a Marker for Glomerular Filtration Rate by In Vitro and In Vivo Studies” (Clinical and Translational Science, 2025)

What was measured:
[1] = system: hOAT1, hOAT3, hOCT1, hOCT2, hMATE1, or hMATE2K; test: Substrate assessments, summary across transporters; type: in vitro ADME, human
Description: We characterized the inhibitory potential of iohexol on major drug transporters recommended by regulatory agencies, which were previously assessed in a clinical transporter phenotyping cocktail study. These transporters include hOAT1, hOAT3, hOCT1, hOCT2, hMATE1, hMATE2K, human organic anion transporter polypeptides (hOATP)1B1, hOATP1B3, and human multidrug resistance protein (hMDR)1. Additionally, we investigated whether iohexol is a substrate for any of the renal transporters among these, including hOAT1/3, hOCT1/2, and hMATE1/2K. Cell‐based uptake assays were used to assess the activities of hOAT1/3, hOCT1/2, hMATE1/2K, and hOATP1B1/1B3. […]
R version 4.2.1 (R Foundation for Statistical Computing, Vienna, Austria) was used for statistical evaluations and data visualization. The data analysis approach for the in vitro study was detailed by Hsin CH et al..^1 In brief, for transport assays, the initial uptake rate was calculated by normalizing the substrate concentration to both the protein concentration and the incubation time for each dish or well. The transporter-mediated uptake rate (net uptake) was determined by performing an element-wise subtraction of uptake rates from different conditions. […] Net uptake rates were determined by subtracting the uptake rate of the control cells or vesicles from that of the transporter-expressing cells or vesicles for each pair. […]

hOCT1 = target: T1, hOCT1 (Homo sapiens, UniProt O15245); test: Inhibition of hOCT1-mediated metformin uptake, stably transfected 293 cells; type: cell-based; settings: substrate 50 µM metformin, median (95% CI)
T1 construct: expressed in transfected cells; host or cells: HEK-293 (293) cells, pEBTetD plasmid, doxycycline-induced
T1 sequence (O15245 1-554): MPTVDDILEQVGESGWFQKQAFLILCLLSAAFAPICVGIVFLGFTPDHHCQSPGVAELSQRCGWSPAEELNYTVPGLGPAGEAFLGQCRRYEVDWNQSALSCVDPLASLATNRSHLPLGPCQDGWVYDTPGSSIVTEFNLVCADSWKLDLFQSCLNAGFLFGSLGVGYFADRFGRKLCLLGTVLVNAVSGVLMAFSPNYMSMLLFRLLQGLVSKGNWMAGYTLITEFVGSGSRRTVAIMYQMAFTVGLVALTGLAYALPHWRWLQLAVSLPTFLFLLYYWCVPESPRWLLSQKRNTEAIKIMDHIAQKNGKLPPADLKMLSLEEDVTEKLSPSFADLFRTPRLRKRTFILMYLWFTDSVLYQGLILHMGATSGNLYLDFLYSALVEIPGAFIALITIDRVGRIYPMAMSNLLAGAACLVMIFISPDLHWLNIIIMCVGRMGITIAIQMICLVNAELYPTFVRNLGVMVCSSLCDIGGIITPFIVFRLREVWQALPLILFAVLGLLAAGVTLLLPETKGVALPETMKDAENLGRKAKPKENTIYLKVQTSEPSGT
Description: We characterized the inhibitory potential of iohexol on major drug transporters recommended by regulatory agencies, which were previously assessed in a clinical transporter phenotyping cocktail study. These transporters include hOAT1, hOAT3, hOCT1, hOCT2, hMATE1, hMATE2K, human organic anion transporter polypeptides (hOATP)1B1, hOATP1B3, and human multidrug resistance protein (hMDR)1. Additionally, we investigated whether iohexol is a substrate for any of the renal transporters among these, including hOAT1/3, hOCT1/2, and hMATE1/2K. Cell‐based uptake assays were used to assess the activities of hOAT1/3, hOCT1/2, hMATE1/2K, and hOATP1B1/1B3. Inside‐out membrane vesicle uptake assays were used to evaluate the activity of hMDR1.
To determine the maximal inhibitory potential of iohexol, intracellular accumulation of a standard substrate was measured with and without the clinically relevant highest concentrations of iohexol. Control inhibitors were tested in each experiment.
In all subsequent in vitro studies, control experiments were conducted to validate the results. These included positive controls for substrates and inhibitors, as well as cells either without transporter expression or transfected with an empty vector, and control vesicles. Each condition, including cells or vesicles with the transporter and their respective controls, was analyzed in at least three replicates. For detailed information on materials, methods, and data analysis techniques used, refer to the Supporting Information. […]
R version 4.2.1 (R Foundation for Statistical Computing, Vienna, Austria) was used for statistical evaluations and data visualization. The data analysis approach for the in vitro study was detailed by Hsin CH et al..^1 In brief, for transport assays, the initial uptake rate was calculated by normalizing the substrate concentration to both the protein concentration and the incubation time for each dish or well. The transporter-mediated uptake rate (net uptake) was determined by performing an element-wise subtraction of uptake rates from different conditions. […]

Increase in iohexol accumulation vs control cells, range of median values across transporters ([1]; 10 μM iohexol for 10 and 30 min): −0.67 to 1.5 pmol/mg protein
Inhibitory effect (% reduction of specific activity) (hOCT1; 20 mM iohexol): no notable inhibitory effects
inhibition at 1000 µM (hOCT1; HEK293, 1 mM iohexol, read-out: Inhibitory effect (% reduction of specific activity)): -9.8%
inhibition at 20000 µM (hOCT1; HEK293, 20 mM iohexol, read-out: Inhibitory effect (% reduction of specific activity)): -22%
Structure (SMILES): CC(=O)N(CC(O)CO)c1c(I)c(C(=O)NCC(O)CO)c(I)c(C(=O)NCC(O)CO)c1I (centres unmarked) [iohexol]
Substrate of the transporters (conclusion) ([1]; in vitro): neither a substrate nor a significant inhibitor
